This is an account of results in publication PMC9945734 (BMC Medicine, 2023).

Data set [1] has as its system DU 145-KQ cells. Briefly: Clone formation assay. Format: cell-based, human. As to conditions: 0-20 μM, 8 days. The protocol: (§1) PC-3-KQ and DU 145-KQ cells were seeded onto 6-well plates at 1 × 10^3 cells/well. After incubation for 24 h, PC-3-KQ cells were treated with NTZ at 0, 1.25, 2.5, and 5 μM, while DU 145-KQ cells were treated with NTZ at 0, 5, 10, and 20 μM for 8 days. The drug-containing medium was replaced every 2 days. On the 8th day, cells were rinsed with cold PBS, fixed with 4% paraformaldehyde for 10 min, stained with purple crystal for 10 min, and photographed, and the images were analyzed using the Image J software.

Data set [2] deals with PC-3-KQ cells. Briefly: Clone formation assay. Format: cell-based, human. Conditions: 0-5 μM, 8 days. How it is done:
as §1

Data set [3] concerns PC-3-KQ-Luc cells. Briefly: Bone metastasis assay, therapy mode. It is filed as in vivo, Balb/c nude mice. The protocol: Male Balb/c nude mice at 3-4 weeks old were purchased from Charles River (Beijing, China). Upon arrival at the Animal Center of the Southern University of Science and Technology (SUSTech), mice were quarantined for one week before use. All mice were maintained and handled following the National Institutes of Health guide for the Care and Use of Laboratory Animals. […] The tumor growth and body weight were measured each week. […] Tumor growth in the bone was determined once a week by in vivo BL imaging using the Living Image Software 4.4 (IVIS Spectrum, PerkinElmer Health Sciences, Massachusetts, USA). Ten minutes after intraperitoneal injection of D-luciferin sodium salt (15 mg/mL, 10 μL/g BW) (GM-040611, Genomeditech, Shanghai, China), bioluminescence images were acquired with the following conditions: open emission filter, exposure time = 60 s, binning = medium: 8, field of view = 12.9 ×12.9 cm, and f/stop = 1. Images were then analyzed using the Living Image 4.4 software (PerkinElmer). At the end of treatment, bioluminescence intensities were measured by photon flux of the region of interest (ROI) and compared between the vehicle and NTZ treatment groups. […] CC0113, […] Biotechnology, Beijing, China) was used as vehicle control, and NTZ was solved in CMC. NTZ was delivered into mice via intragastric administration (100 mg/kg BW) every day. After the sacrifice of mice, hind limbs were removed and fixed in 4% paraformaldehyde for 48 h. Limbs were then scanned using a micro-CT scanner (Skyscan1276, Bruker, Kontich, Belgium). For micro-CT imaging, the scan parameters were: source voltage, 60 kV; source current, 100 μA; AI 0.5 mm filter; pixel size, 10 μm; rotation step, 0.4 degrees. The images were then processed and constructed using the NRecon software (Version 1.7.1.6, Bruker) and converted using […] (Version 1.5.4, Bruker). The region of interest (ROI), set at 0.5 mm from the femur growth plate, was analyzed using the CT-Analyser (CTAn) program. Parameters included bone volume/total volume (BV/TV), trabecular number (Tb.N), trabecular separation (Tb.Sp), and trabecular thickness (Tb.Th). Finally, the 3D images were performed in CTvox software (Version 2.0, Bruker). Femurs were decalcified in ethylenediaminetetraacetic (EDTA) decalcification solution (Cat #: R20403-5L, OKA, Beijing, China) for 14-21 days. After decalcification, bone tissues were dehydrated in gradient ethanol from 70 to 95%, soaked in n-butanol for 6 h, and then embedded in paraffin. Tissue blocks were cut into 4 μm sections. After baking in an oven at 63°C for 1.5 h, tissue slides were deparaffinized with xylene, hydrated with gradient ethanol, and then stained with H&E (Cat #: BA4025, BaSO, Zhuhai, China). Slides were then mounted for analysis with neutral resins (Cat #: 25608-33-7, Sigma-Aldrich, MO, USA).

Data set [4] is described as follows: In vivo toxicity: body weight, adverse events, H&E of major organs. Conditions: 100 mg/kg intragastric every day. Further details: species or system Balb/c nude mice.
For data set [5], the system named is MYBL2 promoter. Briefly: ChIP assay of KLF5 binding to the MYBL2 promoter. It is filed as cell-based, human. As to conditions: PC-3-KQ cells treated for 48 h. How it is done: ChIP assay was performed using the SimpleChIP Enzymatic Chromatin IP kit (Cat #: 9003s, Cell Signaling Technology) according to the manufacturer's instructions. Briefly, cells were treated with 1% formaldehyde for 10 min for cross-linking, quenched with glycine for 5 min at room temperature, collected, and digested with micrococcal nuclease for 20 min at 37°C. After stopping the reaction by adding EDTA, DNA was fragmented by sonication, and the extracts were incubated with KLF5 antibody (Cat #: 21017-1-AP, Proteintech) or IgG (Cat #: 2729P, Cell Signaling Technology). […]

For data set [6] the following is noted: by inhibiting RANKL-induced osteoclastogenesis; cited from earlier work.
The mark [7] stands for this setting: 100 mg/kg intragastric every day.

The structures appear in SMILES notation.

`CC(=O)Oc1ccccc1C(=O)Nc1ncc([N+](=O)[O-])s1` [Nitazoxanide]: the colony number result in data set [1] is reported as “reduced colony number”. For the same compound, the colony number entry in data set [2] was “reduced colony number”. Besides, in data set [3] (setting [7]), the “bone lesions (micro-CT)” value is on record as “significantly reduced such lesions” and the “tumor area in the bone (H&E)” value is listed as “significantly reduced the tumor area”. In data set [3] (micro-CT of femurs), the BV/TV entry is “significantly increased”, the “Tb. N” value is “significantly increased”, the “Tb. Sp” value is on record as “potently decreased” and the “Tb. Th” value is given as “significantly increased”. Besides, in data set [3] (treatment from day 7 for 4 weeks, 100 mg/kg intragastric every day), the bioluminescence intensities entry is listed as “sharply decreased bioluminescence intensities”. The “severe adverse events, mortality, histopathological changes in heart, lung, liver, spleen, kidney” value in data set [4] (prevention mode) is “no mice in any NTZ-treated group had severe adverse events, mortality, or noticeable histopathological changes”. Besides, the body weight result in data set [4] (prevention mode, after 5 weeks) is on record as “did not show a noticeable change”. The body weights result in data set [4] (therapy mode) was “not affected”. The “KLF5^K369Q-bound DNA of MYBL2 promoter (-1242 to -1251)” value in data set [5] is recorded as “significantly decreased KLF5^K369Q-bound DNA”. The “bone loss in ovariectomized mice” value in data set [6] is “reduces bone loss”.
